Assay results as given in patent publication US20250268900A1, “COMBINATION THERAPY USING A SUBSTITUTED PYRIMIDIN-4(3H)-ONE AND NIVOLUMAB AS WELL AS ITS USE IN THE TREATMENT OF CANCER” (BRISTOL-MYERS SQUIBB COMPANY, priority 2022, published 2025).

Experiments:
CT-26 KRAS D12C KI tumor = details: CT-26 KRAS D12C KI bearing Balb/c mice, n = 10
Description: Animal Receipt and Housing. For the CT-26 CRISPR knock-in KRAS D12C study, protocols and procedures involving the care and use of animals were reviewed and approved by the Charles River Accelerator and Development Lab (CRADL) Institutional Animal Care and Use Committee (IACUC) prior to execution. The animal care and use program has been fully accredited by the Association for Assessment and Accreditation of Laboratory Animal Care International (AAALAC). Balb/c female mice (Envigo; Inotiv Inc.) were ordered, aged six to eight weeks at receipt, and identified by ear notch. Animals were acclimated for a period of eleven days prior to tumor inoculation. For the duration of the acclimation period and throughout the study, mice were group-housed up to five animals per cage in disposable polycarbonate IVC cages (Innovive; San Diego, CA) which consisted of a layer of Alpha-Dri bedding (Sheppard Specialty Papers, Inc., Kalamazoo, MI), a certified enrichment block and diamond-twist, and a certified polycarbonate housing device. Mice were presented with rodent diet pellet and irradiated reverse-osmosis Aquavive® drinking water (Innovive; San Diego, CA), ad libitum. The vivarium temperature was maintained between 20° C. through 26° C. and an environmental humidity between 30% through 70%. The interior room lighting was cycled twelve hours on and twelve hours off.
Tumor Cell Line Culture and Inoculation. […] Cells were screened and confirmed negative for mouse pathogens (IDEXX) and maintained in-vitro at 37° C., 5% CO2 atmosphere in 10% (v/v) fetal bovine serum (FBS, Invitrogen) and 90% (v/v) Roswell Park Memorial Institute (RPMI) 1640 Medium (Gibco) on T150 flasks. For implantation, cells were harvested with 0.25% Trypsin-EDTA (Gibco), washed in DPBS (Gibco), counted and viability determined with trypan blue exclusion using Vi-Cell XR (Beckman Coulter), then brought up in a 1:1 ratio of DPBS:Matrigel to a final concentration of 3×10^6 cells/mL. […]

IFNγ = IFNγ concentration in PBMC supernatants 5 days post CEFT stimulation, TR-FRET; format: cell-based; details: 5 days after CEFT stimulation; data not shown
Procedure: (§1) A study was performed to evaluate the effect of the SHP2 inhibitor Compound (10b) alone and in combination with αPD-L1 on T cell cytokine production and killing potential in response to antigenic stimulation. PBMCs from four healthy donors were stimulated with a CEFT peptide pool and treated with vehicle, isotype control, αPD-L1, a titration of Compound (10b), or a titration of Compound (10b) with the addition of either isotype control or αPD-L1. After the initial CEFT stimulation, the cultures were rested and cytokines were added to expand the number of responding CD8+ T cells. Cells were then restimulated with the CEFT peptide pool for 24 hours, and the frequency of CD107a+ cells as a percentage of total CD8+ T cells was assessed by flow cytometry. In addition, at 5 days post stimulation, the supernatents were harvested and the concentration of IFNγ was measured by TR-FRET. FIG. 1A-FIG. 1B show results from this study.

CD8+ T cells = test: CD8+ activation in PBMCs: CD107a+ cells as a percentage of total CD8+ T cells after CEFT peptide pool stimulation, flow cytometry; format: cell-based; details: PBMCs restimulated with CEFT peptide pool 24 hours, titration of Compound (10b) alone or with αPD-L1
Procedure: as §1

Cc1c(N2CCC3(CC2)CO[C@@H](C)[C@H]3N)nc(C)n(-c2cccc(Cl)c2Cl)c1=O (atropisomer, axis not shown; (Ra)) [Compound (10b), 6-((3S,4S)-4-amino-3-methyl-2-oxa-8-azaspiro[4.5]decan-8-yl)-3-(Ra)-(2,3-dichlorophenyl)-2,5-dimethyl-4(3H)-pyrimidinone]
Median Progression-Free to Tumor Burden Endpoint (CT-26 KRAS D12C KI tumor; Formula (10b) 100 mg/kg PO QD×35, ANTIBODY A 10 mg/kg IP Q4D×4, endpoint tumor volume >1,500 mm^3): 19 Study Day | Hazard Ratio Treatment/ANTIBODY A (Group 2) (CT-26 KRAS D12C KI tumor; Mantel-Haenszel hazard ratio vs ANTIBODY A alone, progression-free to tumor burden endpoint (tumor volume >1,500 mm^3)): 1.230 | Hazard Ratio Treatment/Control (Group 1) (CT-26 KRAS D12C KI tumor; Mantel-Haenszel hazard ratio vs Vehicle Control + MOPC-21 Isotype, progression-free to tumor burden endpoint (tumor volume >1,500 mm^3)): 0.261 | IFNγ levels (IFNγ): inconsistent across donors | CD107a+CD8+ T cells (frequency of CD107a+ cells as a percentage of total CD8+ T cells) (CD8+ T cells; donor 1): clear Compound (10b) dose-dependent effect | CD107a+CD8+ T cells (frequency of CD107a+ cells as a percentage of total CD8+ T cells) (CD8+ T cells; donor 2): dose dependent decrease | CD107a+CD8+ T cells (frequency of CD107a+ cells as a percentage of total CD8+ T cells) (CD8+ T cells; donor 3): some Compound (10b) effect | CD107a+CD8+ T cells (frequency of CD107a+ cells as a percentage of total CD8+ T cells) (CD8+ T cells; donor 4): no Compound (10b) effect
